Patent publication US20170304288A1, “Formulations of Methionine Aminopeptidase Inhibitors for Treating Infectious Diseases” (Texas Southern University, priority 2013, published 2017)
≈ marks a conversion by molar mass, not a printed value. Like-named read-outs stand apart in the source and are kept apart here. Marks after values point to notes of the source that are not given here.

Assays:
E. faecalis OG1RF [1] = test: Bacterial viability (CFU) in infected nematodes after treatment; format: in vivo, Enterococcus faecalis; conditions: 4×10^−11 μg/mL, after three days of treatment
Description: Young Adult nematodes sequentially preinfected with E. faecalis for 5 h. The nematodes were washed three times with sterile […] and collected by centrifugation between each wash and then transferred into tubes. […] The nematodes were washed twice in 25 mM Tetramisole and transferred to 6 well plates containing 20% BHI and the inhibitors to recover for 48 h and 72 h. After recovery time elapsed, nematodes were then transferred into an eppendorf tube containing 200 μl of M9 and ground using motorized pestle for 1 min and tube was briefly vortexed.

E. faecalis OG1RF [2] = test: Assay of E. faecalis inhibition (MIC) in BHI culture; conditions: Enterococcus faecalis, read-out: Minimum Inhibitory Concentration MIC30 OG1RF
[3] = Pharmacokinetic study in male Sprague Dawley rats; format: in vivo; conditions: rat; for Cmax / clearance / bioavailability / half-life / Vd: male, Sprague Dawley, plasma; for bioavailability: read-out: Fabs (absolute bioavailability); for Vd: read-out: VD (volume of distribution)
Description: Pharmacokinetic evaluation elucidates the fate of compound 5 in living systems. The pharmacokinetic study of compound 5 was also a means to verify the applicability of the LC-MS/MS assay method and the formulations. An adult male Sprague Dawley rat model was the preferred biological system for this experiment based on the similarity to humans in metabolism and minimal interference of hormones with metabolism. Briefly, male Sprague Dawley rats (n=4 for IV group, n=3 for subcutaneous and oral groups each, body weight: 300-350 g) were cannulated through the jugular vein under anesthesia (using a cocktail of ketamine: acepromazine: xylazine at a ratio of 50: 3.3: 3.3 mg/kg). On the following day, the optimal IV co-solvent formulation was diluted five times with normal saline to 1 mg/mL. The formulation for subcutaneous and oral administration was diluted with equal amount of normal saline to 3.75 mg/mL. Each rat was administered a 2 mg/kg IV bolus dose, 10 mg/kg subcutaneous dose or 20 mg/kg oral dose of compound 5. Heparinized blood samples were withdrawn from each rat at 5, 10, 15, 30 mins, 1, 2, 4, 6, 8, 12, 24, 48, 72, 96, 144 h after injection. The blood samples were centrifuged at 14,000 rpm for 6 min and the supernatant plasma obtained and stored at −80° C. until LC-MS/MS analysis for the concentration of compound 5. Urine samples were also collected at 0, 4, 8, 12, and 24 h. The plasma and urine samples were analyzed (within 7 days) using the developed LC/MS/MS method to determine the concentration of compound 5. FIG. 19A-D show plots of the plasma concentration of compound 5 against time.
The pharmacokinetic parameters for each rat were determined with Phoenix WinNonlin 6.3 software (Pharsight Corporation, Mountain View, Calif., USA) a non-compartmental analysis and a two compartment, which best described the fit for the IV bolus administration of compound 5, based on the observed and predicted fits of the plasma concentration versus time plot, the reduction in the sums of squares, and the Akaike's information criterion (AIC) for comparing compartmental models (5).
The weighting scheme of concentration^−2 (Y^−2) was used to determine the model that best fits the individual profiles. […] The plasma concentration -time profiling following 20 mg/Kg oral and 10 mg/kg subcutaneous doses of compound 5 is shown in FIG. 22C.

[4] = Octanol-water partition co-efficient, shaker method; format: physicochemical; conditions: read-out: experimental M log P
Description: The octanol—water partition co-efficient (log P) of compound 5, which measures its hydrophilicity (“water-loving” property) or hydrophobicity (“water-repelling” property), was evaluated using the shaker method. […] This indicate potential water solubility challenges especially for oral administration.

[5] = iv, 2 mg/kg, Intravenous (Dose: 2 mg/kg), non-compartmental analysis
[6] = iv, 2 mg/kg, Intravenous (Dose: 2 mg/kg), two compartment model
[7] = po, 20 mg/kg, Oral (Dose: 20 mg/kg), non-compartmental analysis
[8] = sc, 10 mg/kg, Subcutaneous (Dose: 10 mg/kg), non-compartmental analysis
[9] = Intravenous (Dose: 2 mg/kg), two compartment model
[10] = Oral (Dose: 20 mg/kg), non-compartmental analysis
[11] = Oral (Dose: 20 mg/kg), two compartment model
[12] = Subcutaneous (Dose: 10 mg/kg), non-compartmental analysis
[13] = Subcutaneous (Dose: 10 mg/kg), two compartment model

Oc1c(Br)cc(Cl)c2cccnc12 [Compound 5, 7-bromo-5-chloroquinolin-8-ol]
drop in CFU (E. faecalis OG1RF [1]): 50 fold | MIC (E. faecalis OG1RF [2]): 2.5 to 5 µg/mL (≈ 9.67 to 19.3 µM) | Cmax [3, 5]: 2560 ± 480 ng/mL | clearance ([3]; iv, 2 mg/kg, Intravenous (Dose: 2 mg/kg), non-compartmental analysis, read-out: Cl- (total body clearance) (converted)): 1.67 mL/min/kg | bioavailability [3, 5]: 100% | half-life ([3]; iv, 2 mg/kg, Intravenous (Dose: 2 mg/kg), non-compartmental analysis, read-out: T1/2 (elimination half-life) (converted)): 176 ± 30.5 h | Vd [3, 5]: 24.6 ± 1.19 L/kg | Cmax [3, 6]: 2600 ± 560 ng/mL | clearance ([3]; iv, 2 mg/kg, Intravenous (Dose: 2 mg/kg), two compartment model, read-out: Cl (total body clearance) (converted)): 2.17 mL/min/kg | half-life ([3]; iv, 2 mg/kg, Intravenous (Dose: 2 mg/kg), two compartment model, read-out: T1/2α (distribution half-life) (converted)): 0.19 ± 0.02 h | half-life ([3]; iv, 2 mg/kg, Intravenous (Dose: 2 mg/kg), two compartment model, read-out: T1/2β (elimination half-life) (converted)): 109 ± 19.4 h | Vd [3, 6]: 21.6 ± 1.32 L/kg | Cmax [3, 7]: 1730 ± 380 ng/mL | bioavailability [3, 7]: 4.6% | half-life ([3]; po, 20 mg/kg, Oral (Dose: 20 mg/kg), non-compartmental analysis, read-out: T1/2 (elimination half-life) (converted)): 8.21 h | Cmax ([3]; po, 20 mg/kg, Oral (Dose: 20 mg/kg), two compartment model): 1670 ± 600 ng/mL | half-life ([3]; po, 20 mg/kg, Oral (Dose: 20 mg/kg), two compartment model, read-out: T1/2abs (absorption half-life) (converted)): 0.14 ± 0.02 h | half-life ([3]; po, 20 mg/kg, Oral (Dose: 20 mg/kg), two compartment model, read-out: T1/2α (distribution half-life) (converted)): 0.33 ± 0.01 h | half-life ([3]; po, 20 mg/kg, Oral (Dose: 20 mg/kg), two compartment model, read-out: T1/2β (elimination half-life) (converted)): 7.05 ± 1.88 h | Cmax [3, 8]: 910 ± 70 ng/mL | bioavailability [3, 8]: 15.7% | half-life ([3]; sc, 10 mg/kg, Subcutaneous (Dose: 10 mg/kg), non-compartmental analysis, read-out: T1/2 (elimination half-life) (converted)): 36.8 ± 2.87 h | Cmax ([3]; sc, 10 mg/kg, Subcutaneous (Dose: 10 mg/kg), two compartment model): 970 ± 50 ng/mL | half-life ([3]; sc, 10 mg/kg, Subcutaneous (Dose: 10 mg/kg), two compartment model, read-out: T1/2abs (absorption half-life) (converted)): 0.376 ± 0.01 h | half-life ([3]; sc, 10 mg/kg, Subcutaneous (Dose: 10 mg/kg), two compartment model, read-out: T1/2α (distribution half-life) (converted)): 1.66 ± 0.65 h | half-life ([3]; sc, 10 mg/kg, Subcutaneous (Dose: 10 mg/kg), two compartment model, read-out: T1/2β (elimination half-life) (converted)): 51.5 ± 16.1 h | AUC0-∞ ([3]; Intravenous (Dose: 2 mg/kg), non-compartmental analysis): 10.3 ± 1 mg/L/h | A (coefficient of α-phase) [3, 9]: 2.51 ± 0.56 mg/L | AUC0-∞ [3, 9]: 15.7 ± 1.96 mg/L/h | B (coefficient of β-phase) [3, 9]: 0.09 ± 0.01 mg/L | AUC0-∞ [3, 10]: 4.73 ± 0.97^a mg/L/hr | Cl- (total body clearance) [3, 10]: 4.72 ± 1.20 L/kg/h | VD (volume of distribution) [3, 10]: 63.9 ± 34.3 L/kg | Fabs (absolute bioavailability) ([3]; Oral (Dose: 20 mg/kg), non-compartmental analysis, 20 mg/kg): 4.59 ± 1.33% | A (coefficient of α-phase) [3, 11]: 4.29 ± 0.42 mg/L | AUC0-∞ [3, 11]: 4.27 ± 1.69 mg/L/h | B (coefficient of β-phase) [3, 11]: 0.37 ± 0.24 mg/L | Cl (total body clearance) [3, 11]: 92.3 ± 36.3 mL/min/kg | VD (volume of distribution) [3, 11]: 34.8 ± 21.8 L/kg | AUC0-∞ [3, 12]: 8.14 ± 0.23^c mg/L/hr | Cl- (total body clearance) [3, 12]: 1.23 ± 0.04^c L/kg/hr | VD (volume of distribution) [3, 12]: 65.0 ± 3.77^c L/kg | A (coefficient of α-phase) [3, 13]: 2.05 ± 0.57 mg/L | AUC0-∞ [3, 13]: 8.68 ± 0.92 mg/L/h | B (coefficient of β-phase) [3, 13]: 0.08 ± 0.02 mg/L | Cl (total body clearance) [3, 13]: 19.5 ± 2 mL/min/kg | VD (volume of distribution) [3, 13]: 45.8 ± 5.95 L/kg | logP [4]: 3.03 ± 0.04
